# Where a name gives a salt, the structure may show the parent alone. Read-outs that look alike come from different tables or passages of the source.
# Experiments:
# [1] = system: acetylcholine induced abdominal constriction; test: prevention of acetylcholine induced abdominal constriction in mice; type: in vivo; conditions: for ED50: Mus musculus, 0.5 h, analgesic alone, oral, mice, acetylcholine challenge 30 minutes after treatment
# Experimental: Mature, male Swiss-Webster mice (weighing 25-30 g) were utilized in determining the analgesic effects of the compositions. The mice were all dosed orally with glucosamine sulfate, which was completely dissolved in distilled water, and a selected analgesic (ibuprofen, diclofenac, tramadol HCl, or acetaminophen), which was completely dissolved in distilled water or in distilled water containing 2% by volume of TWEEN®-80 containing 100% polysorbate 80. Mice were dosed at 10 mL/kg.
# The procedure used in detecting and comparing the analgesic activity of different classes of analgesic drugs was the prevention of acetylcholine induced abdominal constriction in mice.
# Mice were treated with various doses of glucosamine sulfate alone, analgesic alone, combined doses of glucosamine sulfate and analgesic, or vehicle such as distilled water containing 2% by volume of TWEEN®-80. Intraperitoneal injection of a challenge dose of acetylcholine bromide was administered 30 minutes after treatment. […] For scoring purposes an “abdominal constriction” was defined as a contraction of the abdominal musculature accompanied by arching of the back and extension of the limbs. […] Each mouse was tested only once.
# Doses of the combinations were coded to permit complete randomization of the tests.
# [2] = system: acetylcholine induced abdominal constriction; test: as above; type: in vivo
structure (smiles),measurement,setting,value
CC(=O)Nc1ccc(O)cc1 [Acetaminophen],No. protected/no. tested,[1]; acetaminophen 62.5 mg/kg alone,1/10
same,No. protected/no. tested,[1]; acetaminophen 125 mg/kg alone,4/10
same,No. protected/no. tested,[1]; acetaminophen 250 mg/kg alone,8/10
CC(C)Cc1ccc([C@H](C)C(=O)O)cc1 [S(+) Ibuprofen],No. protected/no. tested,[2]; Group A: S(+) ibuprofen 15 mg/kg alone,2/10
same,No. protected/no. tested,[2]; Group B: S(+) ibuprofen 30 mg/kg alone,4/10
same,No. protected/no. tested,[2]; Group C: S(+) ibuprofen 60 mg/kg alone,6/10
same,No. protected/no. tested,[2]; Group D: S(+) ibuprofen 120 mg/kg alone,7/10
COc1cccc(C2(O)CCCCC2CN(C)C)c1 (centres unmarked) [Tramadol HCl],ED50,"[2]; Mus musculus, 0.5 h, read-out: ED50 (alone)",8.05 mg/kg
"CC(C)Cc1ccc(C(C)C(=O)O)cc1 (centres unmarked) [Ibuprofen, 2-(p-isobutylphenyl)propionic acid]",ED50,[1],26.1 ± 3.41 mg/kg
same,No. protected/no. tested,[1]; ibuprofen 10 mg/kg alone,1/10
same,No. protected/no. tested,[1]; ibuprofen 13.91 mg/kg alone,1/10
same,No. protected/no. tested,[1]; ibuprofen 20.0 mg/kg alone,4/10
same,No. protected/no. tested,[1]; ibuprofen 41.74 mg/kg alone,8/10
same,No. protected/no. tested,[1]; ibuprofen 100 mg/kg alone,9/10
same,No. protected/no. tested,[2]; ibuprofen 27.8 mg/kg alone,6/10
same,No. protected/no. tested,[2]; ibuprofen 30.0 mg/kg alone,6/10
O=C(O)Cc1ccccc1Nc1c(Cl)cccc1Cl [Diclofenac],ED50,[1],1.14 mg/kg
COc1ccc2c(c1)c(CC(=O)O)c(C)n2C(=O)c1ccc(Cl)cc1 [Indomethacin],ED50,[1],3.66 mg/kg
same,No. protected/no. tested,[2]; indomethacin 2.5 mg/kg alone,4/10
same,No. protected/no. tested,[2]; indomethacin 5.0 mg/kg alone,6/10
same,No. protected/no. tested,[2]; indomethacin 10.0 mg/kg alone,7/10
CC(=O)Oc1ccccc1C(=O)O [Aspirin],ED50,[1],109 mg/kg
same,No. protected/no. tested,[2]; ASA 50 mg/kg alone,1/10
same,No. protected/no. tested,[2]; ASA 100 mg/kg alone,4/10
same,No. protected/no. tested,[2]; ASA 150 mg/kg alone,8/10
same,No. protected/no. tested,[2]; ASA 200 mg/kg alone,7/10

# — patent US6900189B2, “Analgesic and glucosamine compositions” (priority 2000, dated 2005)
